Source: patent publication US7413837B2, “Charge control agent and toner for electrostatic image development containing the same” (Orient Chemical Industries, Ltd., priority 2002, dated 2008)

Assay: confirmatory test of the sublimation
Type: physicochemical
Conditions: 100 mg compound mixed with 2 g resin of acid value 19 mg KOH/g in crucible, heated at 190 degrees centigrade for 1 hour
Protocol: Subsequently, the confirmatory test of the sublimation of the monoazo compound was performed. 100 mg of the monoazo compound and 2 g of the resin having 19 mg KOH/g of the acid value were added into a 25 mL crucible, and mixed. A filter paper was put on the crucible. After the bottom of crucible was heated at 190 degrees centigrade for 1 hour, an under side of the filter paper was observed.
Subsequently, the confirmatory test of the sublimation of the monoazo metals-compound was performed. 100 mg of the metals-compound and 2 g of the resin having 19 mg KOH/g of the acid value are added and mixed into a 25 mL crucible. A filter paper was put on the crucible. After the bottom of the crucible was heated at 190 degrees centigrade for 1 hour, the under side of the filter paper was observed.

- sublimation property (accretions of sublimates on under side of filter paper): no sublimation property
SMILES: COC(=O)Nc1cccc2ccc(O)c(N=Nc3cc(Cl)ccc3O)c12 [I-1]
